Paper PMC7367283, “A PIP2 substitute mediates voltage sensor-pore coupling in KCNQ activation” (Communications Biology, 2020)

Assays:
CaV1.2 = CaV1.2 (Homo sapiens, UniProt Q13936); assay: Two-electrode voltage clamp of CaV1.2 in Xenopus oocytes; assay type: cell-based; settings: 10 µM CP1
Description: (§1) Since CP1 has a similar effect to PIP2 in mediating VSD-pore coupling in KCNQ channels, we tested if CP1 has effects on other ion channels that are also sensitive to PIP2 or are voltage activated and share general structural features of the VSD and the pore with KCNQ. […] On the other hand, NaV1.5 and KV4.2 are voltage-gated ion channels.
(§2) Fig. 6 Effects of CP1 on other ion channels expressed in Xenopus oocytes. a Currents of Kir1.1, CaV1.2, NaV1.5, hERG, and KV4.2 before and after application of 10 µM CP1, respectively. The voltages for holding, test, and returning pulses were Kir1.1, 0 mV, −100 to +60 mV, 0; CaV1.2, −100 mV, −100 to +60, −100 mV; NaV1.5, −100, −120 to +40 mV, −120 mV; hERG, −80 mV, −90 to +60 mV, −60 mV; KV4.2, −80 mV, −100 mV to +80 mV, −40 mV; HCN4, −30 mV, −30 to −140 mV, −120 mV. b Current–voltage relations of Kir1.1 channel in the absence or presence of 10 µM CP1 (n = 7). c–g G–V relations of indicated channels with and without 10 µM CP1. The ΔV1/2 of G–V relations (mV) are CaV1.2, 3.38 ± 0.71 mV (c); NaV1.5, −2.26 ± 0.95 mV (d); hERG, 6.85 ± 1.81 mV (e); KV 4.2, −2.26 ± 2.88 mV (f); HCN4, 17.13 ± 1.59 mV (g).
(§3) Complementary DNA (cDNA) encoding human KCNQ1 (UniProtKB/Swiss‐Prot under accession no. P51787), KCNQ2 (O43526), KCNQ3 (O43525), KCNE1 (P15382), Kir1.1 (P48048), hERG (Q12809), KV4.2 (Q63881), NaV1.5 (Q14524), NaV β1 (Q07699), CaV1.2 (Q13936), CaV β1a (Q02641), CaV α2/δ1 (P54289), and HCN4 (Q9Y3Q4) were subcloned into oocyte expression vectors, respectively. Site-directed mutations of the KCNQ1 channel were all produced by overlap extension polymerase chain reaction (PCR) with high-fidelity Pfu polymerase (Stratagene, CA). The presence of the desired mutation was verified by sequencing the PCR-amplified regions. All the primer sequences used in this study are available in Supplementary Table 1. The complementary RNA (cRNA) of all these channels and mutations was transcribed in vitro with the T3, T7, or SP6 polymerase mMessage mMachine kit (Invitrogen, Thermo Fisher Scientific, MO).
(§4) The use of Xenopus laevis to obtain oocytes was approved by the Washington University Animal Studies Committee (protocol #20190030). Oocytes were manually dispersed and digested with collagenase (0.5 mg/ml, Sigma-Aldrich, Saint Louis, MO) to remove the follicle cell layer. Stage V or VI oocytes were selected and injected with cRNAs (9.2 ng) of channel or mutations. Especially, to characterize IKs, a mix of cRNAs at a molar ratio 4:1 (KCNQ1:KCNE1) was injected. For KCNQ2/KCNQ3, the molar ratio was 1:1 (KCNQ2:KCNQ3). For sodium channels, a 3:1 molar ratio (β1:NaV1.5) and for calcium channels a weight ratio 1:1:1 (β1:α2/δ1:CaV1.2) was injected, respectively. Injected oocytes were incubated in ND96 solution containing (in mM) 96 NaCl, 2 KCl, 1.8 CaCl2, 1 MgCl2, and 5 HEPES, pH 7.6, supplemented with 2.5 mM Na pyruvate and 1% penicillin–streptomycin, at 18 °C for 3–7 days before recording.
The whole-oocyte ionic currents were recorded with a GeneClamp 500B amplifier (Axon Instruments, CA) or iTEV90 amplifier (HEKA, Germany) and then sampled at 1 kHz and low-pass-filtered at 2 kHz. The Patchmaster software (HEKA, Germany) was used to acquire data. The Kir1.1 current was recorded with a high K^+ bath solution containing (in mM) 96 KCl, 4 NaCl, 1 CaCl2, 2 MgCl2, and 10 HEPES, pH 7.3–7.4. The HCN4 current was recorded in ND66 solution containing (in mM) 66 NaCl, 32 KCl, 1.8 CaCl2, 1 MgCl2, and 5 HEPES, pH 7.6. All the other potassium channels were recorded in ND96 solution. The currents of CaV1.2 channel were recorded in 40 mM Ba^2+ bath solution containing (in mM) 40 Ba(OH)2, 50 TEA-OH, 2 KOH, and 5 HEPES, adjusted to pH 7.4 with methanesulfonic acid. CP1 (DISODIUM 5-BROMO-2-[9-CHLORO-3-(SULFONATOOXY) NAPHTHO [1,2-B] THIEN-2-YL]-1H-INDOL-3-YL SULFATE, Sigma-Aldrich, MO) and Chromanol 293B (Sigma-Aldrich, MO) were dissolved in bath solutions. All the chemicals were purchased from Sigma-Aldrich. […]

NaV1.5 = NaV1.5 (Homo sapiens, UniProt Q14524); assay: Cut-open oocyte recording of NaV1.5; assay type: cell-based; settings: 10 µM CP1
NaV1.5, sequence (Q14524 whole entry): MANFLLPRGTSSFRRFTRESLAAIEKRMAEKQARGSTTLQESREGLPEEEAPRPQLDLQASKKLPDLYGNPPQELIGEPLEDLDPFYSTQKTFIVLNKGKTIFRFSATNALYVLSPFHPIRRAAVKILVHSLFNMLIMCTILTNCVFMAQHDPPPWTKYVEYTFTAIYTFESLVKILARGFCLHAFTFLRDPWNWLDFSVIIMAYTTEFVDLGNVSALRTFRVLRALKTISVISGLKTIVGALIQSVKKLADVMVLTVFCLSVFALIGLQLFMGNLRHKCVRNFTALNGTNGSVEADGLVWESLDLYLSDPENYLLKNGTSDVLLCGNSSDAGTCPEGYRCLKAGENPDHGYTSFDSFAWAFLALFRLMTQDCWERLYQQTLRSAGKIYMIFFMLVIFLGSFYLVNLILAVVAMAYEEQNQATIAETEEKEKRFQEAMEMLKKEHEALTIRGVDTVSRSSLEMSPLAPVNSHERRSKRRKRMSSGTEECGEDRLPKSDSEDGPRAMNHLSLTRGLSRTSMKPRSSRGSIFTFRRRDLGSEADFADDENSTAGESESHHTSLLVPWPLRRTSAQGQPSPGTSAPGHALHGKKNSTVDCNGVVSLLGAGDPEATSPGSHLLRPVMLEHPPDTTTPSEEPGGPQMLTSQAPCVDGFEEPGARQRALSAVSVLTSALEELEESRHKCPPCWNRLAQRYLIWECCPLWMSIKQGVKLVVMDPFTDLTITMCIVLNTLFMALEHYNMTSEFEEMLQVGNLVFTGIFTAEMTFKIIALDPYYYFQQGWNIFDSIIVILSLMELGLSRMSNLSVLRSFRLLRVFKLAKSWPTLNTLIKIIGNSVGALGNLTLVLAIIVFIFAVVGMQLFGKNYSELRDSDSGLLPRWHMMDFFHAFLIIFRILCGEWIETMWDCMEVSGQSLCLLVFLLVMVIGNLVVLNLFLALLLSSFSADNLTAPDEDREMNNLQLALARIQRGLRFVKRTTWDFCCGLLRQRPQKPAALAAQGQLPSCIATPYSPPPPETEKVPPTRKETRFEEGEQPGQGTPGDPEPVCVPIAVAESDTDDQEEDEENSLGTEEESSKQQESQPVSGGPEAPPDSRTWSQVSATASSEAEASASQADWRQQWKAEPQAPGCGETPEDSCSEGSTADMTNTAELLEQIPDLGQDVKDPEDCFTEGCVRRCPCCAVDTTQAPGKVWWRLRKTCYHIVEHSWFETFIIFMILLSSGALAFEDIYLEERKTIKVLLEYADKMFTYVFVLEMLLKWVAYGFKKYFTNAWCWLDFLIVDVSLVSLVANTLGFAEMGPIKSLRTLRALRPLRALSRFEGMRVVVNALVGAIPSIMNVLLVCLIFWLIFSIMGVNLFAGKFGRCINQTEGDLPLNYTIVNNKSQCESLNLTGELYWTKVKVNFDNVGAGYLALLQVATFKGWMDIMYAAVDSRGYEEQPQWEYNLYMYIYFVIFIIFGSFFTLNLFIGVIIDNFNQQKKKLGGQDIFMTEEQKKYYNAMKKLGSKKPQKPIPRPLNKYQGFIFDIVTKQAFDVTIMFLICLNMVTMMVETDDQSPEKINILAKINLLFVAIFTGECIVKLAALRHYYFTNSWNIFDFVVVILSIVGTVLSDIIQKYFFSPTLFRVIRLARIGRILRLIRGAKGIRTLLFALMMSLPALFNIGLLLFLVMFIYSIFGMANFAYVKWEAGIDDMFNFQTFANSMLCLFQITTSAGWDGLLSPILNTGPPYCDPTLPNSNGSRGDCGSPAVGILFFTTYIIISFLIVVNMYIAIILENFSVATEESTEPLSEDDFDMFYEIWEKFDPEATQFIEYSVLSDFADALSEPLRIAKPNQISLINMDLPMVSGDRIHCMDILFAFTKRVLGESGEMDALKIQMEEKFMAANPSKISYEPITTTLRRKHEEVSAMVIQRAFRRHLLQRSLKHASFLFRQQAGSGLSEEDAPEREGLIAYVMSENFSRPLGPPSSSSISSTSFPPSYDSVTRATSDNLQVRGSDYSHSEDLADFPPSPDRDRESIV
NaV1.5, sequence (Q07699 19-218 partner): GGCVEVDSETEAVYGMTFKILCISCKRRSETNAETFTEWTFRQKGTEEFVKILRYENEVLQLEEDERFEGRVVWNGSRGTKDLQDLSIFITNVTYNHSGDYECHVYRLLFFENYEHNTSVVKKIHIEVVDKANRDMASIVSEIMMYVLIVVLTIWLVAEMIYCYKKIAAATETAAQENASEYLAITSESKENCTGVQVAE
Description: as §1, §2, §3, §4
NaV1.5 currents were recorded with a cut-open amplifier (CA-1B, Dagan Corporation) coupled with an A/D converter (Digidata 1440, Molecular Devices). The data were acquired using Clampex software (v10, Molecular Devices). The internal solution was composed of (mM) 105 NMG‐Mes, 10 Na‐Mes, 20 HEPES, and 2 EGTA, pH 7.4. The external solution was composed of (mM) 25 NMG‐Mes, 90 Na‐Mes, 20 HEPES, and 2 Ca‐Mes2, pH 7.4. The ionic currents were recorded using the standard I–V protocol. From a holding potential of −120 mV, cells were stepped to a 100-ms prepulse of −120 mV and then stepped to test potentials ranging from −120 to 60 mV with 20-mV increment, […] a 100-ms postpulse of −120 mV.

O=S(=O)([O-])Oc1c(-c2sc3c(ccc4cccc(Cl)c43)c2OS(=O)(=O)[O-])[nH]c2ccc(Br)cc12.[Na+].[Na+] [CP1, DISODIUM 5-BROMO-2-[9-CHLORO-3-(SULFONATOOXY) NAPHTHO [1,2-B] THIEN-2-YL]-1H-INDOL-3-YL SULFATE]
ΔV1/2 of G–V relations (CaV1.2): 3.38 ± 0.71 mV | G/Gmax Mean (Fig. 6c) (CaV1.2; voltage 0 mV): 0.1903 | G/Gmax Mean (Fig. 6c) (CaV1.2; voltage 10 mV): 0.4214 | G/Gmax Mean (Fig. 6c) (CaV1.2; voltage 20 mV): 0.7222 | G/Gmax Mean (Fig. 6c) (CaV1.2; voltage 30 mV): 0.9242 | G/Gmax Mean (Fig. 6c) (CaV1.2; voltage 40 mV): 1.0000 | G/Gmax Mean (Fig. 6c) (CaV1.2; voltage -10 mV): 0.0690 | G/Gmax Mean (Fig. 6c) (CaV1.2; voltage -20 mV): 0.0228 | G/Gmax Mean (Fig. 6c) (CaV1.2; voltage -30 mV): 0.0102 | G/Gmax Mean (Fig. 6c) (CaV1.2; voltage -40 mV): 0.0076 | G/Gmax Mean (Fig. 6c) (CaV1.2; voltage -50 mV): 0.0080 | G/Gmax Mean (Fig. 6c) (CaV1.2; voltage -60 mV): 0.0090 | G/Gmax Mean (Fig. 6c) (CaV1.2; voltage -70 mV): 0.0102 | G/Gmax Mean (Fig. 6c) (CaV1.2; voltage -80 mV): 0.0108 | G/Gmax Mean (Fig. 6c) (CaV1.2; voltage -90 mV): 0.0176 | G/Gmax Mean (Fig. 6c) (CaV1.2; voltage -100 mV): 0.0169 | ΔV1/2 of G–V relations (NaV1.5): −2.26 ± 0.95 mV | G/Gmax Mean (Fig. 6d) (NaV1.5; voltage 0 mV): 0.9380 | G/Gmax Mean (Fig. 6d) (NaV1.5; voltage 20 mV): 1.0000 | G/Gmax Mean (Fig. 6d) (NaV1.5; voltage -20 mV): 0.9095 | G/Gmax Mean (Fig. 6d) (NaV1.5; voltage -40 mV): 0.8354 | G/Gmax Mean (Fig. 6d) (NaV1.5; voltage -60 mV): 0.4098 | G/Gmax Mean (Fig. 6d) (NaV1.5; voltage -80 mV): 0.0040 | G/Gmax Mean (Fig. 6d) (NaV1.5; voltage -100 mV): 0.0015 | G/Gmax Mean (Fig. 6d) (NaV1.5; voltage -120 mV): 0.0016
